Measurements as given in paper PMC11952846, “The sterol-regulating human ARV1 binds cholesterol and phospholipids through its conserved ARV1 homology domain” (The Journal of Biological Chemistry, 2025).

Tests used:
[1] = molecular target: T1, GST-ARV1 (full-length ARV1) (Homo sapiens, UniProt Q9H2C2); experiment: Protein-lipid liposome binding assay (ultracentrifugation, Western blot); settings: protein detected in final pellet
T1 construct: Expresses full length ARV1; made in house; host or cells: E. coli BL21 (pGEX-4T1)
T1 sequence (Q9H2C2 1-271): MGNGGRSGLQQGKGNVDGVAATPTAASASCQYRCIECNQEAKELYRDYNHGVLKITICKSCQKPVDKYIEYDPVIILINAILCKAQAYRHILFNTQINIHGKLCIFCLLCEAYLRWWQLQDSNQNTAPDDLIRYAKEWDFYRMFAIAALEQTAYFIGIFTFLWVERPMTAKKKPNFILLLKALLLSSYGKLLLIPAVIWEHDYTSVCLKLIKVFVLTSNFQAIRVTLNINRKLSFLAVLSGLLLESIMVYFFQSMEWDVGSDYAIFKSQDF
Description: (§1) Lyophilized lipids were reconstituted in chloroform at 10 mg/ml and stored in glass tubes with Teflon tops at −20 °C until use. One milliliter of 10 mg/ml stock was dried under a stream of nitrogen in a glass tube until a lipid cake/film was formed. The lipid cake was then rehydrated in BLT rehydration buffer (5 mM Tris/HCl, pH 7.4, containing 150 mM NaCl) to a concentration of 1 mg/ml. Lipid suspensions were subjected to three freeze/thaw cycles using a dry ice ethanol/[…] water bath to encapsulate the buffer and improve liposome formation. The suspension and lipid extruder were equilibrated to temperature for 10 min and liposomes were extruded using […] polycarbonate membranes (Avestin). Liposomes were made by mixing stock lipid PL (1 mg/ml) with PC (10 mg/ml).
(§2) Cholesterol composition liposomes were rehydrated with cholesterol rehydration buffer (10 mM Hepes, pH 7.4, containing 150 mM KCl).
(§3) Liposomes were serial diluted in floatation buffer (100 mM NaCl, 2 mM EDTA, pH 5.5) to a final concentration of 0.1 mg/ml. Nine hundred microliters of liposome solution was placed in clear ultracentrifuge tubes and mixed with 100 μl of 0.01 μg/ml of protein. The liposome/protein solution was incubated at room temperature for 1 h with occasional shaking. An initial 100 μl of liposome/protein solution (liposomes) was removed and the remaining 900 μl was centrifuged at 50,000g for 20 min at 4 °C. The pellet was resuspended in 800 μl of fresh floatation buffer, centrifuged as above, and 800 μl of supernatant was removed (wash 1). This was repeated a second time and again 800 μl of supernatant was removed (wash 2). The final pellet was resuspended in 100 μl of floatation buffer plus SDS treatment buffer (pellet). Thirty microliters of each fraction was run on a 15% SDS-PAGE gel and probed with an anti-GST monoclonal antibody at a 1:1500 dilution.

[2] = molecular target: T2, GST-ARV1-N98 (N-terminal 98 amino acids, AHD) (Homo sapiens, UniProt Q9H2C2); experiment: as above; settings: protein detected in final pellet
T2 construct: Expresses amino-terminal 98 amino acids of ARV1; made in house; host or cells: E. coli BL21 (pGEX-4T1)
T2 sequence (Q9H2C2 1-98): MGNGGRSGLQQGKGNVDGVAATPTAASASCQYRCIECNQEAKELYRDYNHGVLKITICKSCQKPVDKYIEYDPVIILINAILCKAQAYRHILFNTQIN
Description: as §1, §2, §3

GST-Annexin A2 = GST-Annexin A2 (Homo sapiens, UniProt P07355); experiment: Protein-lipid liposome binding assay (positive control protein); settings: protein detected in final pellet
Chain of GST-Annexin A2 (P07355 whole entry): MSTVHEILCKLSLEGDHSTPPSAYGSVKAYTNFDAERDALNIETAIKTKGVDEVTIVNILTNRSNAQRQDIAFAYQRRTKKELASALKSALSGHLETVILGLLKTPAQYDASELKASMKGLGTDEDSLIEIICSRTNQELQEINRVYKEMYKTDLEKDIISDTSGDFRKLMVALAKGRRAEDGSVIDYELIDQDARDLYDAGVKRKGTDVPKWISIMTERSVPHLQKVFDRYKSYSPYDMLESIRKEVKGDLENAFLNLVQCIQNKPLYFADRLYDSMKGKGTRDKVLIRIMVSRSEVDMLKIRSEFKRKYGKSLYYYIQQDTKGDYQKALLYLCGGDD
Description: as §1, §3

6XHIS-ARV1-N98 = molecular target: T3, 6XHIS-ARV1-N98 (Homo sapiens, UniProt Q9H2C2); experiment: HTRF phospholipid lipid-binding assay; settings: biotinylated lipid (Bio-PL) titrated, 0.75 μM protein; lipid labels mean the biotinylated lipids
T3 construct: made in house; host or cells: E. coli BL21
T3 sequence (Q9H2C2 1-98): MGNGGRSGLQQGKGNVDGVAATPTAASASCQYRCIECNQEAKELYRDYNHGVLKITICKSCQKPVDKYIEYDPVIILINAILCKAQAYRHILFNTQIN
Excerpt: An HTRF assay was developed for 6XHIS-ARV1-N98-lipid binding. HTRF measures analyte interactions through fluorescence resonance energy transfer technology and time-resolved measurements ([53]). The interaction between two molecules can be quantified through binding each individual molecule involved with a fluorescent label and then analyzing the transfer of energy between the initial donor fluorophore and the secondary acceptor fluorophore. Following excitation of the first fluorophore, transfer of energy can only occur if the molecules bound with the fluorescent tags are within proximity to each other.
Assays were plated in 384-well flat bottom microplates (Greiner Bio, catalog #784075-25). Proteins were diluted using binding buffer (20 mM Hepes buffer, pH 7.2, containing 0.1% BSA, and 0.01% Tween20) to a stock concentration of 0.75 μM, and biotinylated phospholipids were dispensed, dried under nitrogen gas, and resuspended in binding buffer to a stock concentration of 50 μM. The lipid stock solution was diluted by 1:2 for a series of 12 serial dilutions. For the assay, in sequential order, 6 μl of binding buffer was loaded into the plate in triplicate for each dilution of phospholipid. To this, 2 μl of 0.75 μM 6XHIS-ARV1-N98 was added, followed by 2 μl of biotinylated phospholipid. Immediately following each addition loaded into the plate, the plate was centrifuged for 1 min at 1000 rpm to bring the contents to the bottom of the well. Next, detection antibodies were mixed with detection buffer (20 mM Hepes buffer, pH 8.5, containing 0.01% BSA and 200 mM KF). […] Plates were read on a PerkinElmer EnVision Xcite Multilabel plate reader.
Curves were logarithmically transformed and normalized to a common scale before being fit with a nonlinear regression of the agonist against the normalized response. […] For phospholipid competition analysis, IC50; M values were determined using nonlinear regression of the inhibitor against normalized response.

Substance: phosphatidylinositol [PI, reference compound]
- binding to PC:PL liposomes [1]: not
- binding to PC:PL liposomes [2]: not
- binding to PC:PL liposomes (GST-Annexin A2): not
- EC50 (6XHIS-ARV1-N98): 12 µM
